Patent US9480677B2, “Enantiomers of spiro-oxindole compounds and their uses as therapeutic agents” (Xenon Pharmaceuticals Inc., priority 2009, dated 2016)

Columns and labels:
[1] = Plasma concentration after oral dosing in the CFA model; assay type: in vivo, rats
Experimental: Each enantiomer was dosed at 10, 30, 100 or 200 mg/Kg. The plasma concentration achieved with each dose was also determined and the reversal of pain response (as the % increase from baseline threshold) is plotted as a function of plasma concentration.

[2] = test system: chronic constriction injury neuropathic pain; assay: Neuropathic pain model; chronic constriction injury (CCI); assay type: in vivo; details: topical ointment containing 2% (w/v)
[3] = biological target: T1, hNav1.7 (Homo sapiens, UniProt Q15858); assay: cell-based
T1 sequence (Q15858 whole entry): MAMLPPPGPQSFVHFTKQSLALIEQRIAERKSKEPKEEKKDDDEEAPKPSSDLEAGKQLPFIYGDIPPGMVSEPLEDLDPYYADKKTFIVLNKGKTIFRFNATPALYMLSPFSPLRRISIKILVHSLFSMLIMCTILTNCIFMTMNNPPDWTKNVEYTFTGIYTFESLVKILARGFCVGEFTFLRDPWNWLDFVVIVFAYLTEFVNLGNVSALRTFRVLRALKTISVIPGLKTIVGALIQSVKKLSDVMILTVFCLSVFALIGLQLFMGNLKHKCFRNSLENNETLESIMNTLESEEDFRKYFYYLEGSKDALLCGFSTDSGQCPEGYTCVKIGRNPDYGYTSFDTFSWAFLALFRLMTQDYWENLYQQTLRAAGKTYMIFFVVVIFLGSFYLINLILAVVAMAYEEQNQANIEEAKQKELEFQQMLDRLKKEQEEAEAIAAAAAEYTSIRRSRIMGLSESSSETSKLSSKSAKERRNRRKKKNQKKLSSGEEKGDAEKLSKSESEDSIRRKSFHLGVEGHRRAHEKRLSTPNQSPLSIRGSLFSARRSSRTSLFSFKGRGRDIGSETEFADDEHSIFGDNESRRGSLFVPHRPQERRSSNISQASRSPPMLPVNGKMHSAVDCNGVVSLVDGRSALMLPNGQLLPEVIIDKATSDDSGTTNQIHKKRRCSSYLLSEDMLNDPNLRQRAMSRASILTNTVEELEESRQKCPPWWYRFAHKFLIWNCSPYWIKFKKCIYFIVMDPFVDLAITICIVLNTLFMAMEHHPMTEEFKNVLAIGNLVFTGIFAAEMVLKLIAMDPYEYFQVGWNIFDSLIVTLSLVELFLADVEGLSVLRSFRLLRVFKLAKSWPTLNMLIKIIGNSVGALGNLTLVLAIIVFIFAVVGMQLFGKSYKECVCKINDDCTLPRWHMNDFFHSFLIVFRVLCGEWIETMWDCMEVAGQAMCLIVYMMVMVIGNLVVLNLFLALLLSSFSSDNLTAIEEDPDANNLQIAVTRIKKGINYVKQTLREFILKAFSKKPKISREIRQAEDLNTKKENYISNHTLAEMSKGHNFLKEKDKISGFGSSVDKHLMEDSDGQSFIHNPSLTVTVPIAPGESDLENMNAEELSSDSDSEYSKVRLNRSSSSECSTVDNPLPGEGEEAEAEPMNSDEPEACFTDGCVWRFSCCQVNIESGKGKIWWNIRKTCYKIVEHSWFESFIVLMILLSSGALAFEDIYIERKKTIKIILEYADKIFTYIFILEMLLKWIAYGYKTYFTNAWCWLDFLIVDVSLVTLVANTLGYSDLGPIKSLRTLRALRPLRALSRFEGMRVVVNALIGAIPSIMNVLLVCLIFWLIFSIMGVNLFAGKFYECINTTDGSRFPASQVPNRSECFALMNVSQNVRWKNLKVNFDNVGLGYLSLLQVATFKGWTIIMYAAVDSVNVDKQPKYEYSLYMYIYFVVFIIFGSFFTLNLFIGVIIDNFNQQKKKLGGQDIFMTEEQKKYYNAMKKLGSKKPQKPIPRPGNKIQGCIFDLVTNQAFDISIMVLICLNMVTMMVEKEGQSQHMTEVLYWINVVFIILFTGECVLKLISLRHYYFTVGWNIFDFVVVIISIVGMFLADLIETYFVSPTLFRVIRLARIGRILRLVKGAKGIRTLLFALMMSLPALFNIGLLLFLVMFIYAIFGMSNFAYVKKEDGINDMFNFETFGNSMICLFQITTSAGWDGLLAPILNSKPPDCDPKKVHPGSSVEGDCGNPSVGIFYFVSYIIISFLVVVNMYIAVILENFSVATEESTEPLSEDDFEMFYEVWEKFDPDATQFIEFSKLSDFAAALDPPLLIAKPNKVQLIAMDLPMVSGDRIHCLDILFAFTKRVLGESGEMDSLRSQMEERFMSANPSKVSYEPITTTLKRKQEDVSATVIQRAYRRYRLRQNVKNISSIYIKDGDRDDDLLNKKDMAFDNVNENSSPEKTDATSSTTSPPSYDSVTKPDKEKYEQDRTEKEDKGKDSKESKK

[4] = biological target: T1, hNav1.7; assay: Electrophysiological assay, whole cell voltage clamp; assay type: cell-based; parameters: expressed in transfected cells; host or cells: HEK293; details: for Ki: affinity for the inactivated state of hNav1.7; for Kd: affinity for the rested/closed state of hNav1.7, holding potential −120 mV, read-out: Kr
Experimental: HEK293 Cells expressing hNav1.7 were cultured in DMEM growth media (Gibco) with 0.5 mg/mL G418, +/−1% PSG, and 10% heat-inactivated fetal bovine serum at 37° C. and 5% CO2. For electrophysiological recordings, cells were plated on 10 mm dishes.
Whole cell recordings were examined by established methods of whole cell voltage clamp (Bean et al., op. cit.) using an Axopatch 200B amplifier and Clampex software (Axon Instruments, Union City, Calif.). All experiments were performed at ambient temperature. Electrodes were fire-polished to resistances of 2-4 Mohms Voltage errors and capacitance artifacts were minimized by series resistance compensation and capacitance compensation, respectively. Data were acquired at 40 kHz and filtered at 5 kHz. The external (bath) solution consisted of: NaCl (140 mM), KCl (5 mM), CaCl2 (2 mM), MgCl2 (1 mM), HEPES (10 mM) at pH 7.4. The internal (pipette) solution consisted of (in mM): NaCl (5), CaCl2 (0.1), MgCl2 (2), CsCl (10), CsF (120), HEPES (10), EGTA (10), at pH 7.2.
To estimate the steady-state affinity of compounds for the resting and inactivated state of the channel (Kr and Ki, respectively), 12.5 ms test pulses to depolarizing voltages from −60 to +90 m V from a holding potential of −120 m V was used to construct current-voltage relationships (1-V curves). A voltage near the peak of the IV-curve (−30 to 0 m V) was used as the test pulse throughout the remainder of the experiment. Steady-state inactivation (availability) curves were then constructed by measuring the current activated during a 8.75 ms test pulse following 1 second conditioning pulses to potentials ranging from −120 to −10 mV.
The steady-state voltage-dependence of binding of a compound to a voltage-gated sodium channel was determined by measuring the blockage of the ionic current at two holding potentials. Binding to rested-state channels was determined by using a holding potential of −120 mV, so that maximal availability was achieved. Binding to inactivated-state channels was evaluated at a holding potential such that only about 10% of the channels were available to open. The membrane potential was held at this voltage for at least 10 seconds so that drug binding could equilibrate.
The apparent dissociation constant at each voltage was calculated with the equation:
[formula] where Kd is the dissociation constant (either Kr or Ki), and [Drug] is the concentration of the test compound.

[5] = biological target: Nav1.4 (CHO-K1) (Cricetulus griseus, UniProt A0A9J7H6F9); assay type: cell-based, Chinese Hamster
Chain of Nav1.4 (CHO-K1) (A0A9J7H6F9 1-1930): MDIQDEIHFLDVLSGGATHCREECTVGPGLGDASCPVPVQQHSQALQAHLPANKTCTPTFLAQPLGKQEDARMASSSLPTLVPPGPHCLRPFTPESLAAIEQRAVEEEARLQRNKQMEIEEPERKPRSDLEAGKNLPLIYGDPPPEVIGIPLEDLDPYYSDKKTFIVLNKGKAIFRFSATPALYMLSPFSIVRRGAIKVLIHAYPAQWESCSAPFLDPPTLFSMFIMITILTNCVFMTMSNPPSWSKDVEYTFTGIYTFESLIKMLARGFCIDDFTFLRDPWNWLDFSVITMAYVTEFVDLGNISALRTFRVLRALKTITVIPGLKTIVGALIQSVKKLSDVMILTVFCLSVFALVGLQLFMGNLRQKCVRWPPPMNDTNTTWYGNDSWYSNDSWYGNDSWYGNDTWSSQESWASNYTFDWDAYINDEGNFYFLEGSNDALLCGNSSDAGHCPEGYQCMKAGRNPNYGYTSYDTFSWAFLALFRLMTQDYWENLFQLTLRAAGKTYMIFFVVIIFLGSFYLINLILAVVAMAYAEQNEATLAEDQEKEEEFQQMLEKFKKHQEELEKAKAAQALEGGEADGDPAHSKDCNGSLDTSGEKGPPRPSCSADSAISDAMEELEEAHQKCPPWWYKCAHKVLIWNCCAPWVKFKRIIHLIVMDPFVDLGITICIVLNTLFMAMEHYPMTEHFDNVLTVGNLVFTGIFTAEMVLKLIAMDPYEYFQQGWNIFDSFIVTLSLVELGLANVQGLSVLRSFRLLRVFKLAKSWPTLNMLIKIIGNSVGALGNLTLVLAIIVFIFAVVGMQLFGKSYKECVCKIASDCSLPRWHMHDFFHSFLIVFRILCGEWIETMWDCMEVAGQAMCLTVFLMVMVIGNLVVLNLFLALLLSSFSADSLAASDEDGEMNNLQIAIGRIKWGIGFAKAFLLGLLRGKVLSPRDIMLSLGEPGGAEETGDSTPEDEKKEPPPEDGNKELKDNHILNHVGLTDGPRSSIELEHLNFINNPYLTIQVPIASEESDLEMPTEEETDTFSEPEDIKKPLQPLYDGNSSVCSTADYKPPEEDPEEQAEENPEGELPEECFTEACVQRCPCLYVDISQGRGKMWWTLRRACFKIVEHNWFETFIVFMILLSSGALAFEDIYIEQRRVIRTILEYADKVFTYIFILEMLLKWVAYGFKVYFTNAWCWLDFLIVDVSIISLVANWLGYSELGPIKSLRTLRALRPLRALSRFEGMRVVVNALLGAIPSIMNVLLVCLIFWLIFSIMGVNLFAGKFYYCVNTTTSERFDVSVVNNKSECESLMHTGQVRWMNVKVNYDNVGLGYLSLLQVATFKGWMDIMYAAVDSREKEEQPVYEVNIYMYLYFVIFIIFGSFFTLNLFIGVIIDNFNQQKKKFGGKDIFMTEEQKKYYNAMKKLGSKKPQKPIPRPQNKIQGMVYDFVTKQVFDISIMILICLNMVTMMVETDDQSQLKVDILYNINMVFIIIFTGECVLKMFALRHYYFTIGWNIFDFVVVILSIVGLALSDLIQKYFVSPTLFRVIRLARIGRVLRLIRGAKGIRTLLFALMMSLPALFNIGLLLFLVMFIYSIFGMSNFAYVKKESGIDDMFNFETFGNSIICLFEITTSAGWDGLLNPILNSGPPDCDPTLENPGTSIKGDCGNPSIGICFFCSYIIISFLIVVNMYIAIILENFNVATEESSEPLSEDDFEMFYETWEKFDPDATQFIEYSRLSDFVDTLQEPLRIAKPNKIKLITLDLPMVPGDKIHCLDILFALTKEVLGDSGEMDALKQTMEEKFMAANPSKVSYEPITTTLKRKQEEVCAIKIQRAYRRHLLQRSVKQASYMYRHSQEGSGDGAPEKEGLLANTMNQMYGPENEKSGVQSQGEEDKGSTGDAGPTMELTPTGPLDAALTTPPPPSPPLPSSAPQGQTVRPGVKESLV

[6] = test system: Nav1.4 and 1.5 (L6); assay type: cell-based, rat
[7] = test system: Nav1.9 and Nav1.7 (SH-SY5Y); assay type: cell-based, Human
[8] = test system: Nav1.8 (SK-N-BE2C); assay type: cell-based, human
[9] = test system: Nav1.2 and Nav1.7 (PC12); assay type: cell-based, rat

SMILES | excess of the inactive (R)-enantiomer resulting from use of the racemate ([1]; oral dosing) | plasma concentration at an equivalent dose level ([1]; oral dosing 10, 30, 100 or 200 mg/Kg, compared with the (S)-enantiomer) | reversal of pain responses, percent increase from baseline [2] | IC50 [3] | Ki [4] | Kd [4] | block of [14C] guanidine influx by TTX [5] | block of [14C] guanidine influx by TTX [6] | block of [14C] guanidine influx by TTX [7] | block of [14C] guanidine influx by TTX [8] | block of [14C] guanidine influx by TTX [9]
O=C1N(Cc2ccc(C(F)(F)F)o2)c2ccccc2[C@@]12COc1cc3c(cc12)OCO3 [(I-R), (R)-1′-{[5-(trifluoromethyl)furan-2-yl]methyl}spiro[furo[2,3-f][1,3]benzodioxole-7,3′-indol]-2′(1H)-one] | ~10 fold | much higher plasma concentration | no significant increase from baseline | 4200 nM | 869 nM | > 10000 nM | – | – | – | – | –
NC1=N[C@H](O)[C@H]2[C@H]3O[C@]4(O)O[C@@H]([C@@H](O)[C@@]2(N1)[C@@H]4O)[C@]3(O)CO [TTX, tetrodotoxin] | – | – | – | – | – | – | completely blocked using TTX. | partially blocked by TTX at 100 nM | background was partially blocked | TTX partially blocked influx | guanidine influx was completely
O=C1N(Cc2ccc(C(F)(F)F)o2)c2ccccc2C12COc1cc3c(cc12)OCO3 (racemic) [(I), 1′-{[5-(trifluoromethyl)furan-2-yl]methyl}spiro[furo[2,3-f][1,3]benzodioxole-7,3′-indol]-2′(1′H)-one] | – | – | – | 7 nM | 142 nM | > 10000 nM | – | – | – | – | –
